pEC50: −log10 of the molar value.
target: human activated kallikrein enzyme (Homo sapiens, UniProt P03952); experiment: Plasma kallikrein inhibition, fluorogenic PFR-AMC substrate, 500 pM activated kallikrein format; format: biochemical; details: 500 pM activated kallikrein, 300 uM PFR-AMC, 30 min preincubation, 10 min reaction; read-out: Primary Dose Response Assay: Average EC50
Method: Compounds were evaluated for inhibition of the human activated kallikrein enzyme in two formats of an assay employing a fluorogenic peptide substrate. In one assay format, the concentrations of reagents were as follows: 20 mM Tris pH 7.5, 1 mM EDTA, 150 mM sodium chloride, 0.1% PEG-400, 0.1% Triton X-100, 500 pM activated kallikrein enzyme, 300 uM Pro-Phe-Arg-7-amido-4-methylcoumarin (PFR-AMC) substrate. Prior to reaction initiation with substrate, enzyme and inhibitors were preincubated for 30 min at room temperature. After initiation with substrate, reactions were incubated for 10 min at room temperature and fluorescence emission at 460 nm from 380 nm excitation measured with a microplate reader. In another assay format, the concentrations of reagents were as follows: 20 mM Tris pH 7.5, 1 mM EDTA, 150 mM sodium chloride, 0.1% PEG-400, 0.1% Triton X-100, 5 pM activated kallikrein enzyme, 300 uM PFR-AMC substrate. Prior to reaction initiation with substrate, enzyme and inhibitors were preincubated for 30 min at room temperature. After initiation with substrate, reactions were incubated for 18 hr at room temperature and fluorescence emission at 460 nm from 380 nm excitation measured with a microplate reader.
Table 49 provides the results of the assay in the format with 500 pM activated kallikrein assay. For the compounds listed in Table 49, the EC50 values are reported according to the following ranges: A≤1.0 nM; 1.0 nM<B≤10 nM; 10 nM<C≤100 nM; 100 nM<D≤1000 nM; 1000 nM<E≤6000 nM; 6000 nM<F.
Table 51 provides comparative plasma kallikrein inhibition potency in the assay format with 500 pM activated kallikrein assay (described in detail in a preceding example). For the compounds listed in Table 51, the EC50 values are reported according to the following ranges: A≤1.0 nM; 1.0 nM<B≤10 nM; 10 nM<C≤100 nM; 100 nM<D≤1000 nM; 1000 nM<E≤6000 nM; 6000 nM<F.

Chain of human activated kallikrein enzyme (P03952 391-638 limits assumed): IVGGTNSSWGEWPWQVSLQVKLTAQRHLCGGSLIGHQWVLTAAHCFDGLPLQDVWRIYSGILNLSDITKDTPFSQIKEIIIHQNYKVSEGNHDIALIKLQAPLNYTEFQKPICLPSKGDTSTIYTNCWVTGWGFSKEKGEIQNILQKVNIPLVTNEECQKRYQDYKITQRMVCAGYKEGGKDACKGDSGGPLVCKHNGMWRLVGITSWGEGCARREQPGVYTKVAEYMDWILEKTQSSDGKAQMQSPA
Chain of human activated kallikrein enzyme (P03952 20-390 partner limits assumed): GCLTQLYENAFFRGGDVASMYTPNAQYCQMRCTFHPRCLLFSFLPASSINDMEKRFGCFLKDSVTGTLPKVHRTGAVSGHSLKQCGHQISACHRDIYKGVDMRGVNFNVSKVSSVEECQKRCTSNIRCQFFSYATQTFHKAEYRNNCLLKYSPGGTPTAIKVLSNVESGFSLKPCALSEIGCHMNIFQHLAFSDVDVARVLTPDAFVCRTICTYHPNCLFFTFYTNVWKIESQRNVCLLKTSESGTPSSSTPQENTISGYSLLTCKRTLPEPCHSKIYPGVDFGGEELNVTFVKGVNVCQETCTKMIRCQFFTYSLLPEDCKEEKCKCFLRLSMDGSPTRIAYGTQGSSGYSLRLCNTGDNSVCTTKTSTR

pEC50	Compound
8.00 to 9.00	COc1ccnc([C@H]2C[C@@H]2C(=O)Nc2cc(NCc3cn4cc(C5CC5)ccc4n3)ccn2)c1 (racemic) [Example I-214, rac-(1S*,2S*)-N-(4-(((6-cyclopropylimidazo[1,2-a]pyridin-2-yl)methyl)amino)pyridin-2-yl)-2-(4-methoxypyridin-2-yl)cyclopropane-1-carboxamide]
7.00 to 8.00	CC(NC(=O)[C@H]1C[C@@H]1c1cccc(Cl)c1)c1cn(Cc2cn3cc(C4CC4)ccc3n2)nn1 (single isomer, unassigned) [Example 589, rac-(1S*,2S*)-2-(3-chlorophenyl)-N-(1-(1-((6-cyclopropylimidazo[1,2-a]pyridin-2-yl)methyl)-1H-1,2,3-triazol-4-yl)ethyl)cyclopropane-1-carboxamide]
< 5.22	COc1cc([C@H]2C[C@@H]2C(=O)Nc2cc(NCc3cn4cc(C5CC5)ccc4n3)ncn2)cc(NC(=O)OC(C)(C)C)n1 (racemic) [Example I-182, rac-tert-butyl (4-((1S*,2S*)-2-((6-(((6-cyclopropylimidazo[1,2-a]pyridin-2-yl)methyl)amino)pyrimidin-4-yl)carbamoyl)cyclopropyl)-6-methoxypyridin-2-yl)carbamate]
8.00 to 9.00	CN1CC(=O)N(c2cc(C3CC3)cn3cc(CNc4cc(NC(=O)[C@H]5C[C@@H]5c5cccc(Cl)c5)ncn4)nc23)C1=O [Example I-171, (1S,2S)-2-(3-chlorophenyl)-N-(6-(((6-cyclopropyl-8-(3-methyl-2,5-dioxoimidazolidin-1-yl)imidazo[1,2-a]pyridin-2-yl)methyl)amino)pyrimidin-4-yl)cyclopropane-1-carboxamide]
> 9.00	Cc1ccnc([C@H]2C[C@@H]2C(=O)Nc2nncc(N[C@H](C)c3cn4cc(C5CC5)cc(N5CC(=O)N(C)C5=O)c4n3)n2)n1 [Example 665, (1S,2S)—N-(5-(((R)-1-(6-cyclopropyl-8-(3-methyl-2,4-dioxoimidazolidin-1-yl)imidazo[1,2-a]pyridin-2-yl)ethyl)amino)-1,2,4-triazin-3-yl)-2-(4-methylpyrimidin-2-yl)cyclopropane-1-carboxamide]
> 9.00	Cc1ccnc([C@H]2C[C@@H]2C(=O)Nc2cc(N[C@H](C)c3cn4cc(C5CC5)cc(N5CC(=O)NC5=O)c4n3)ncn2)n1 [Example 533, (1S,2S)-N-(6-(((R)-1-(6-cyclopropyl-8-(2,4-dioxoimidazolidin-1-yl)imidazo[1,2-a]pyridin-2-yl)ethyl)amino)pyrimidin-4-yl)-2-(4-methylpyrimidin-2-yl)cyclopropane-1-carboxamide]
6.00 to 7.00	O=C(Nc1cc(NCc2cn3cc(C4CC4)ccc3n2)ncn1)[C@@H]1C[C@@]12C(=O)Nc1ccc(Cl)cc12 (racemic) [Example 510, rac-(1R*,2R*)-5′-chloro-N-(6-(((6-cyclopropylimidazo[1,2-a]pyridin-2-yl)methyl)amino)pyrimidin-4-yl)-2′-oxospiro[cyclopropane-1,3′-indoline]-2-carboxamide]
> 9.00	Cc1ccnc([C@H]2C[C@@H]2C(=O)Nc2cc(NCc3cn4cc(C5CC5)cc(N5CC(=O)N(C)C5=O)c4n3)n3ncnc3n2)n1 (racemic) [Example 624, rac-(1S*,2S*)—N-(7-(((6-cyclopropyl-8-(3-methyl-2,4-dioxoimidazolidin-1-yl)imidazo[1,2-a]pyridin-2-yl)methyl)amino)-[1,2,4]triazolo[1,5-a]pyrimidin-5-yl)-2-(4-methylpyrimidin-2-yl)cyclopropane-1-carboxamide]
> 9.00	Cc1ccnc([C@H]2C[C@@H]2C(=O)Nc2nncc(OC(C)c3cn4cc(C5CC5)cc(N5CC(=O)N(C)C5=O)c4n3)n2)n1 (stereo partly drawn) [Example 672, (1S,2S)—N-(5-(1-(6-cyclopropyl-8-(3-methyl-2,4-dioxoimidazolidin-1-yl)imidazo[1,2-a]pyridin-2-yl)ethoxy)-1,2,4-triazin-3-yl)-2-(4-methylpyrimidin-2-yl)cyclopropane-1-carboxamide]
7.00 to 8.00	O=C(Nc1cc(NCc2nc3ccc(C4CC4)cn3c2F)ncn1)[C@H]1C[C@@H]1c1cccc(Cl)c1 [Example I-152, (1S,2S)-2-(3-chlorophenyl)-N-(6-(((6-cyclopropyl-3-fluoroimidazo[1,2-a]pyridin-2-yl)methyl)amino)pyrimidin-4-yl)cyclopropane-1-carboxamide]
7.00 to 8.00	CN1C(=O)CN(c2cc(C3CC3)cn3cc(CNc4cc(NC(=O)[C@@H]5C[C@H]5c5cc(Cl)ccn5)ncn4)nc23)C1=O (single isomer, unassigned) [Example I-263]
< 5.22	C[C@H]1[C@H](C(=O)Nc2cc(NCc3cn4cc(C5CC5)ccc4n3)ncn2)[C@H]1c1cccc(Cl)c1 (single isomer, unassigned) [Example 506, (1R*,2R*,3S*)-2-(3-chlorophenyl)-N-(6-(((6-cyclopropylimidazo[1,2-a]pyridin-2-yl)methyl)amino)pyrimidin-4-yl)-3-methylcyclopropane-1-carboxamide]
6.00 to 7.00	Cc1ccnc([C@H]2C[C@@H]2C(=O)Nc2cc(OCc3cn4c(N5CC(=O)N(C)C5=O)cc(C5CC5)cc4n3)ncn2)n1 [Example 554, (1S,2S)-N-(6-((7-cyclopropyl-5-(3-methyl-2,4-dioxoimidazolidin-1-yl)imidazo[1,2-a]pyridin-2-yl)methoxy)pyrimidin-4-yl)-2-(4-methylpyrimidin-2-yl)cyclopropane-1-carboxamide]

Continued, molecule first:

Compound	pEC50
O=C(Nc1cnnc(NCc2cn3cc(C4CC4)ccc3n2)c1)[C@H]1C[C@@H]1c1cccc(Cl)c1 (racemic) [Example 348, (rac-(1S*,2S*))-2-(3-chlorophenyl)-N-(6-(((6-cyclopropylimidazo[1,2-a]pyridin-2-yl)methyl)amino)pyridazin-4-yl)cyclopropane-1-carboxamide]	8.00 to 9.00
O=C(Nc1cc(NCc2cn3cc(C4CC4)cc(N4CCCC4=O)c3n2)ccn1)[C@@H]1C[C@H]1c1cccc(Cl)c1 (relative stereo) [Example 118]	> 9.00
O=C(Nc1cc(NCc2cn3cc(C4CC4)ccc3n2)ncn1)[C@H]1C[C@@H]1c1cc(Cl)ccc1F (racemic) [Example 44, rac-(1S*,2S*)-2-(5-chloro-2-fluorophenyl)-N-(6-(((6-cyclopropylimidazo[1,2-a]pyridin-2-yl)methyl)amino)pyrimidin-4-yl)cyclopropane-1-carboxamide]	7.00 to 8.00
Cc1ccnc([C@H]2C[C@@H]2C(=O)Nc2cc(NC(c3cn4cc(C5CC5)cc(N5CC(=O)N(C)C5=O)c4n3)C(F)(F)F)ncn2)n1 (stereo partly drawn) [Example 370, (1S,2S)-N-(6-((1-(6-cyclopropyl-8-(3-methyl-2,4-dioxoimidazolidin-1-yl)imidazo[1,2-a]pyridin-2-yl)-2,2,2-trifluoroethyl)amino)pyrimidin-4-yl)-2-(4-methylpyrimidin-2-yl)cyclopropane-1-carboxamide]	7.00 to 8.00
COc1nc(NCc2cn3cc(C4CC4)ccc3n2)cc(NC(=O)[C@@H]2C[C@H]2c2cccc(Cl)c2)n1 (racemic) [Example 107, rac-(1S*,2S*)-2-(3-chlorophenyl)-N-(6-(((6-cyclopropylimidazo[1,2-a]pyridin-2-yl)methyl)amino)-2-methoxypyrimidin-4-yl)cyclopropane-1-carboxamide]	7.00 to 8.00
C[C@H]1[C@H](C(=O)Nc2cc(NCc3cn4cc(C5CC5)ccc4n3)ncn2)[C@H]1c1cccc(Cl)c1 (single isomer, unassigned) [Example 505, (1R*,2R*,3S*)-2-(3-chlorophenyl)-N-(6-(((6-cyclopropylimidazo[1,2-a]pyridin-2-yl)methyl)amino)pyrimidin-4-yl)-3-methylcyclopropane-1-carboxamide]	7.00 to 8.00
Nc1ccc(Cl)cc1[C@H]1C[C@@H]1C(=O)Nc1cc(NCc2cn3cc(C4CC4)ccc3n2)ncn1 (racemic) [Example 279, rac-(1S*,2S*)-2-(2-amino-5-chlorophenyl)-N-(6-(((6-cyclopropylimidazo[1,2-a]pyridin-2-yl)methyl)amino)pyrimidin-4-yl)cyclopropane-1-carboxamide]	6.00 to 7.00
O=C(Nc1cc(NCc2cn3cc(C4CC4)ccc3n2)ncn1)[C@H]1C[C@@H]1c1cccc(Cl)c1F (racemic) [Example 43, rac-(1S*,2S*)-2-(3-chloro-2-fluorophenyl)-N-(6-(((6-cyclopropylimidazo[1,2-a]pyridin-2-yl)methyl)amino)pyrimidin-4-yl)cyclopropane-1-carboxamide]	7.00 to 8.00
CCOC(=O)CCc1cc(C2CC2)cn2cc(CNc3cc(NC(=O)[C@H]4C[C@@H]4c4cccc(Cl)c4)ncn3)nc12 (racemic) [Example 61, rac-ethyl 3-(2-(((6-((1S*,2S*)-2-(3-chlorophenyl)cyclopropane-1-carboxamido)pyrimidin-4-yl)amino)methyl)-6-cyclopropylimidazo[1,2-α]pyridin-8-yl)propanoate]	8.00 to 9.00

same assay, conditions: comparative compounds, 500 pM activated kallikrein format; read-out: Primary Dose Response Assay: Average EC50

pEC50	Compound
5.22 to 6.00	O=c1ccc(NCc2cn3cc(C4CC4)ccc3n2)cn1NC[C@H]1C[C@@H]1c1cccc(Cl)c1

Reference: patent publication US20240228488A1 (TAKEDA PHARMACEUTICAL COMPANY LIMITED, priority 2021, published 2024)
